Literature values as cited in patent US20050096371A1, “Topical pharmaceutical compositions” (priority 2003, published 2005).

Experiments:
human subjects = details: repeated insult patch test, 50 human subjects, total of 15 applications; manufacturer's brochure
humans = details: Marzulli and Maibach's method

| Structure (SMILES) | PII (rabbit skin) | irritation to rabbit skin (rabbit skin) | primary dermal irritation / sensitization (human subjects) | cutaneous irritation (rabbits) | cutaneous irritation / sensitization (humans) |
| --- | --- | --- | --- | --- | --- |
| CN1CCCC1=O [Pharmasolve®, N-methyl-2-pyrrolidone] | 0.5 | practically nonirritating | neither a primary dermal irritant nor a sensitizer |  |  |
| CCOCCOCCO [Transcutol®, diethylene glycol monoethyl ether] |  |  |  | nonirritating | nonirritating and non-sensitizing |
